{"source": "paper PMC9436958", "about": "“The synthesis of novel thioderivative chalcones and their influence on NF-κB, STAT3 and NRF2 signaling pathways in colorectal cancer cells” (Scientific Reports, 2022)", "format_in_all_cases": "cell-based", "key": {"[1]": {"system": "Nrf2", "test": "qRT-PCR, Nrf2 mRNA", "conditions": "5 at 5 μM", "protocol": "(§1) Total RNA from cells was isolated with the GeneMatrix Universal DNA/RNA/Protein Purification Kit (EurX, Poland). For the qRT-PCR analyses, the Maxima SYBR Green I/ROX qPCR Master Mix (2×) (Thermo Fisher Scientific, USA) and the thermal cycler LightCycler (Roche, Germany) were used. The protocol started with 5 min of enzyme activation at 95 °C, followed by 40–50 cycles at 95 °C for 15 s, 56 °C for 20 s, 72 °C for 40 s, and final elongation at 72 °C for 5 min. Melting curve analysis was used for amplicon verification. The expression levels of TATA-box-binding protein (TBP) and porphobilinogen deaminase (PBGD) were used to normalize the data. The Pfaffl comparative method was used to calculate fold change. Primers were designed using Beacon Designer software (the sequences of primers used to analyze genes are listed in Table 2 of the supplementary materials)."}, "[2]": {"system": "SOD", "test": "SOD expression (qRT-PCR mRNA, Western blot protein)", "conditions": "HCT116 cells; 5 μM", "protocol": "(§2) Cytosolic and nuclear extracts were prepared using a Nuclear/Cytosol Fractionation Kit (BioVision Research, USA). Cytosolic extracts (for NF-κBp65, NF-κBp50, COX-2, iNOS, STAT3, c-Myc, Bcl-xl, Nrf2, SOD, GSTP, EGFR, Akt, p-Akt, Keap1, IKKα/β and β-actin) or nuclear extracts (for NF-κBp65, NF-κBp50, STAT3, p-STAT3, Nrf2, p-Nrf2 and lamin) were separated on 7.5%, 10% or 12% SDS–PAGE slab gels. Then, the proteins were transferred to a nitrocellulose Immobilon-P membrane. After blocking for 2 h with 10% skimmed milk, proteins were incubated with primary antibodies against NF-κBp65, NF-κBp50, COX-2, iNOS, STAT3, p-STAT3, c-Myc, Bcl-xl, Nrf2, p-Nrf2, SOD, GSTP, EGFR, Akt, p-Akt, Keap1, IKKα/β, β-actin, and lamin. Alkaline phosphatase (AP)-labeled anti-rabbit IgG, anti-goat IgG, and anti-mouse IgG secondary antibodies (Bio-Rad Laboratories, USA), as well as horseradish peroxidase (HRP)-conjugated anti-mouse IgG (Boster Bio, USA) secondary antibodies were used in the staining reaction. Bands were visualized by the AP Conjugate Substrate Kit NBT/BCIP or the chemiluminescent HRP substrate of the Clarity ECL Kit (Bio–Rad Laboratories, USA). The amount of immunoreactive product in each lane was determined using a ChemiDoc Imaging System (Bio–Rad Laboratories, USA). Values were calculated as relative absorbance units (RQ) per mg of protein and expressed as a percentage of the control.\nas §1, with “Primers were designed using Beacon Designer software (the sequences of primers used to analyze genes are listed in Table 2 of the supplementary materials).” left out"}, "[3]": {"system": "p-Nrf2", "test": "Western blot, p-Nrf2 protein in nuclear fraction", "conditions": "HCT116 line; 5 μM", "protocol": "as §2"}, "[4]": {"system": "GSTP", "test": "GSTP expression (qRT-PCR mRNA, Western blot protein)", "conditions": "DLD-1 cells; 5 at 5 μM", "protocol": "as §2, with “control. […]” for “control.”"}, "[5]": {"system": "DLD-1 cells", "test": "Cell cycle distribution, PI staining, flow cytometry, DLD-1", "conditions": "48 h, BAY 11-7082 5 µM, 5 in higher (doubled) concentration", "protocol": "The analysis of the cell cycle distribution was performed by propidium iodide (PI) staining. The addition of RNase A improved the specificity of PI binding to DNA. The Muse Cell Cycle Kit (Luminex, USA) and flow cytometric detection were performed with the Muse Cell Analyzer (Merck, Germany), according to the manufacturer’s protocol. Briefly, cells were seeded (2 × 10^5 cells per well) in 6-well plates and on the following day the analyzed compounds were added. Topotecan (Sigma-Aldrich, USA) was used as a positive control of cell cycle arrest. After 48 h cells were collected by trypsinization, fixed in cold 70% ethanol and stored at –20 °C. Then, fixed cells were collected and stained with PI, subjected to 30 min incubation at room temperature in the dark and analyzed by flow cytometry. Three independent experiments were performed. Data were analyzed by Muse 1.5 Analysis Software (Merck, Germany)."}, "[6]": {"system": "NF-κB p65", "test": "qRT-PCR, NF-κB p65 mRNA", "conditions": "DLD-1 cells; 5 μM", "protocol": "as §1"}, "[7]": {"system": "IKKα/β", "test": "Western blot, IKKα/β protein in cytosolic fraction", "conditions": "HCT116 cells; 4 at 1 μM", "protocol": "as §2"}, "[8]": {"system": "DLD-1 cells", "test": "Wound healing assay (cell migration)", "conditions": "24 h, 4 at standard concentration (1 μM), BAY 11-7082 5 µM", "protocol": "Cell migration was assessed by the wound healing assay. DLD-1 cells were seeded into 24-well plates (5 × 10^5 cells per well) and were grown overnight to reach confluency. A scratch was performed using a 10 μl tip, wells were rinsed twice with PBS buffer to remove detached cells, and fresh medium with reduced FBS concentration (0.5%) containing the tested compounds was added. Subsequently, representative microscopic photographs of scratch areas were taken by JuLI FL microscope (NanoEntek, South Korea) direct after the addition of compounds and after 24 h. Area covered by cells (%) was assessed using JuLI FL software and the difference in the coverage of the growth area by DLD-1 cells between 0 and 24 h time points was calculated for each well. The experiment was repeated three times. The relative effect of the tested compounds on cell migration was calculated by comparing the difference in cell coverage area between compound-treated cells and DMSO-vehicle control (tested compound [area 24 h − area 0 h] / DMSO-vehicle control [area 24 h − area 0 h])."}, "[9]": {"system": "NF-κB p65", "test": "Western blot, NF-κB p65 protein level", "conditions": "4 at 1 μM, vs control", "protocol": "as §2"}, "[10]": {"system": "COX-2", "test": "COX-2 expression (qRT-PCR mRNA, Western blot protein)", "conditions": "4 at 1 μM", "protocol": "as §2, §1"}, "[11]": {"system": "STAT3", "test": "Western blot, STAT3 protein level", "conditions": "4 at 1 μM", "protocol": "as §2"}}}
{"smiles": "COc1cc(/C=C/C(=O)c2cc(Br)c(SC)c(OC)c2)ccc1SC", "note": "[chalcone 5]", "values": [{"measurement": "increase in Nrf2 transcription", "setting": "[1]; DLD-1 line", "result": 77, "unit": "%"}, {"measurement": "increase in Nrf2 transcription", "setting": "[1]; HCT116 line", "result": 45, "unit": "%"}, {"measurement": "levels of SOD mRNA and protein", "setting": "[2]", "result": "increased levels of SOD mRNA and protein"}, {"measurement": "increase in the nuclear level of p-Nrf2", "setting": "[3]", "result": 85, "unit": "%"}, {"measurement": "GSTP expression and protein levels", "setting": "[4]", "result": "significantly increased GSTP expression and protein levels"}, {"measurement": "cell cycle distribution (in words)", "setting": "[5]", "result": "slightly enriching S phase"}, {"measurement": "inhibitory effect on p65 subunit transcription", "setting": "[6]", "result": "most potent inhibitory effect"}]}
{"smiles": "COc1cc(C(=O)/C=C/c2cccc(SC)c2)cc(Br)c1OC", "note": "[chalcone 4]", "values": [{"measurement": "IKKα/β, cytosolic fraction", "setting": "[7]", "result": "inactivation"}, {"measurement": "reduction of cell migration rate (wound healing) vs DMSO-treated cells", "setting": "[8]", "result": "approximately 15%"}, {"measurement": "decrease of p65 level in the nuclear fraction", "setting": "[9]; DLD-1 cells", "result": 22, "unit": "%"}, {"measurement": "decrease of p65 level in the nuclear fraction", "setting": "[9]; HCT116 cells", "result": 26, "unit": "%"}, {"measurement": "COX-2 protein level", "setting": "[10]; DLD-1 cells, cytosolic fraction", "result": "reduced COX-2 protein levels"}, {"measurement": "COX-2 transcription", "setting": "[10]; DLD-1 cells, 3, 6 at 5 μM", "result": "statistically significant reduction"}, {"measurement": "COX-2 expression, protein level", "setting": "[10]; HCT116 cells, 2 at 5 μM", "result": "reduction of COX-2 expression"}, {"measurement": "COX-2 expression, transcript level", "setting": "[10]; HCT116 cells, 2 at 5 μM", "result": "reduction of COX-2 expression"}, {"measurement": "decrease in the nuclear level of STAT3 protein", "setting": "[11]; DLD-1 cells, 2 at 5 μM", "result": 21, "unit": "%"}, {"measurement": "decrease in the nuclear level of STAT3 protein", "setting": "[11]; HCT116 cells", "result": 22, "unit": "%"}]}
